# Results reported in publication PMC10815991, “Membrane-Bound Redox Enzyme Cytochrome bd-I Promotes Carbon Monoxide-Resistant Escherichia coli Growth and Respiration” (International Journal of Molecular Sciences, 2024).
# Read-outs that look alike come from different tables or passages of the source.
# Assays:
# [1] = biological target: T1, cytochrome bd-II (bd-II-only E. coli cells) (Escherichia coli, UniProt P26459); design: method as in PMID 37515940; details: [O2] = 150 μM; cited from earlier work
# T1 construct: the oxidases were in vivo conditions, i.e., integrated into native bacterial membranes; endogenous in cells; host or cells: E. coli TBE026 (MG1655 ΔcydB nuoB cyoB::kan); whole cells (A2) or membranes isolated from them (A6)
# T1 sequence (P26459 whole entry): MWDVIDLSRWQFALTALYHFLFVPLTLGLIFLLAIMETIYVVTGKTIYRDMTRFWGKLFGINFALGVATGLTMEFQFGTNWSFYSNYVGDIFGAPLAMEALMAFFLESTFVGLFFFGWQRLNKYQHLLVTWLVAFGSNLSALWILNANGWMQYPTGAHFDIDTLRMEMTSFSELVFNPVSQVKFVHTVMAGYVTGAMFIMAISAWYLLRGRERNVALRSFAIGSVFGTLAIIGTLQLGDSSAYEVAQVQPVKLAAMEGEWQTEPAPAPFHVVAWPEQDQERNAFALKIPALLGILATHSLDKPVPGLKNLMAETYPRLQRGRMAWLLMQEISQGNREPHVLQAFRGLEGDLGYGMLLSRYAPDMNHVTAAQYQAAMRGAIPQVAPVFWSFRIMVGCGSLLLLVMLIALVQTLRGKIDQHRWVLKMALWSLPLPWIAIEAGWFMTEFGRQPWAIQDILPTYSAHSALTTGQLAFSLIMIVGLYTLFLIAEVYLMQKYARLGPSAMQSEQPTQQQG
# T1 sequence (P26458 whole entry partner): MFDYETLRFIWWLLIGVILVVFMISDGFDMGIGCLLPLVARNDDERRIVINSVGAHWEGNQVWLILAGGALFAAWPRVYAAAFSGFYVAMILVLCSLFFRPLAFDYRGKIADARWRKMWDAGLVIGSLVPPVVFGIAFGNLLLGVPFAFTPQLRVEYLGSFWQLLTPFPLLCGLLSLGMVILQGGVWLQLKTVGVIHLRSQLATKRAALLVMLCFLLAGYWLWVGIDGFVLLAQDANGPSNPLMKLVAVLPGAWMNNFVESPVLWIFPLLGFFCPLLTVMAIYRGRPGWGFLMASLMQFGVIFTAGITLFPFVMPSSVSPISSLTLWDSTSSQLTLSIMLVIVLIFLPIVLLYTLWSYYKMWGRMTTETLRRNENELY
# T1 sequence (P24244 whole entry partner): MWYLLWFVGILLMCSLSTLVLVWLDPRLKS
# [2] = system: E. coli mutant strain expressing cytochrome bd-II as the sole terminal oxidase; test: Cell growth (OD600) of bd-II-only strain in presence of CO; format: cell-based, Escherichia coli; details: ~20% CO added at 60 min after start of growth in air, vs ~20% N2 control
# Description: (§1) The CO and N2 gases were purchased from Linde (Danbury, CT, USA) and Air Liquide (Air Liquide Italia Spa, Milano, Italy), respectively. Other chemicals were purchased from Merck KGaA (Darmstadt, Germany). A stock solution of CO or N2 was prepared by equilibrating degassed water with the pure gas at 1 atm and room temperature, yielding 1 mM CO and 0.7 mM N2 in solution. E. coli respiratory mutant strains TBE025 (MG1655 ΔcydB nuoB appB::kan), TBE026 (MG1655 ΔcydB nuoB cyoB::kan), and TBE037 (MG1655 ΔappB nuoB cyoB::kan), which respectively express cytochrome bo3, cytochrome bd-II, or cytochrome bd-I as the sole terminal oxidase, were used. […] The gas percentage was assessed by taking into account the different O2 concentrations, present in equal volumes of LB equilibrated with air or flushed with CO/N2 for 30 s, and calculated according to the following equation: Gas % = ([O2] air equilibrated − [O2] gas flushed)/[O2] air equilibrated × 100. [O2] air equilibrated and [O2] gas flushed are the O2 concentration values measured in the degassed chamber of a high-resolution respirometer (Oxygraph-2k, Oroboros Instruments GmbH, Innsbruck, Austria) of non-fluxed and fluxed E. coli cultures with CO or N2, respectively. The growth of the E. coli cultures was then monitored via a standard method using optical density measurements in an Eppendorf BioSpectrometer basic at 600 nm every 30 min. […]
# cytochrome bd-I heme d2+ = details: cited from earlier work
# [3] = system: E. coli mutant strain expressing cytochrome bo3 as the sole terminal oxidase; test: Cell growth (OD600) of bo3-only strain in presence of CO; format: cell-based, Escherichia coli; details: ~20% CO added at 60 min after start of growth in air, vs ~20% N2 control
# Description: as §1
# [4] = biological target: T1, cytochrome bd-II (bd-II-only E. coli cells); test: O2 consumption (aerobic respiration) of bd-II-only E. coli cell suspensions; format: cell-based; details: for IC50: read-out: apparent IC50
# Description: (§2) The CO and N2 gases were purchased from Linde (Danbury, CT, USA) and Air Liquide (Air Liquide Italia Spa, Milano, Italy), respectively. Other chemicals were purchased from Merck KGaA (Darmstadt, Germany). A stock solution of CO or N2 was prepared by equilibrating degassed water with the pure gas at 1 atm and room temperature, yielding 1 mM CO and 0.7 mM N2 in solution. E. coli respiratory mutant strains TBE025 (MG1655 ΔcydB nuoB appB::kan), TBE026 (MG1655 ΔcydB nuoB cyoB::kan), and TBE037 (MG1655 ΔappB nuoB cyoB::kan), which respectively express cytochrome bo3, cytochrome bd-II, or cytochrome bd-I as the sole terminal oxidase, were used. E. coli cultures were grown in Luria–Bertani (LB) medium supplemented with 30 μg/mL kanamycin, at 37 °C and 200 rpm. In the case of growth studies, after inoculation at an OD600 of 0.15 ± 0.03, the cells were grown in 50 mL rubber-stoppered flasks in 16 mL of air-equilibrated LB at 37 °C for 60 min; when OD600 reached 0.4 ± 0.08, they were bubbled for 30 s with either CO (pure gas at 1 atm and room temperature) or N2 (pure gas at 1 atm and room temperature) as a control to yield a final concentration of both gases of ~20%. The gas percentage was assessed by taking into account the different O2 concentrations, present in equal volumes of LB equilibrated with air or flushed with CO/N2 for 30 s, and calculated according to the following equation: Gas % = ([O2] air equilibrated − [O2] gas flushed)/[O2] air equilibrated × 100. [O2] air equilibrated and [O2] gas flushed are the O2 concentration values measured in the degassed chamber of a high-resolution respirometer (Oxygraph-2k, Oroboros Instruments GmbH, Innsbruck, Austria) of non-fluxed and fluxed E. coli cultures with CO or N2, respectively. The growth of the E. coli cultures was then monitored via a standard method using optical density measurements in an Eppendorf BioSpectrometer basic at 600 nm every 30 min. When the OD600 was above 1, cultures were diluted before reading.
# (§3) Oxygraphic measurements were performed at 25 °C in 50 mM K/phosphate pH 7.0, using a high-resolution respirometer (Oxygraph-2k, Oroboros Instruments GmbH, Innsbruck, Austria) equipped with two 1.5-mL chambers. The O2 consumption of E. coli cells was followed with endogenous reductants. In the case of isolated membranes, O2 consumption was measured in the presence of 2.5 mM dithiothreitol (DTT) and 2.5 μM 2,3-dimethoxy-5-methyl-6-(3-methyl-2-butenyl)-1,4-benzoquinone (Q1), an artificial reducing couple specific for quinol oxidases. The catalytic O2-consuming activity was obtained by subtracting the non-enzymatic O2 consumption (Q1/DTT autoxidation in the absence of the membranes) from the O2 consumption rate measured after the addition of membranes.
# (§4) UV–visible absorption spectra were recorded to estimate the amount of each terminal oxidase present in cell suspensions. For this purpose, an Agilent Cary 60 UV-Vis or a Varian Cary 300 Bio UV-Visible spectrophotometer was used.
# (§5) Data analysis was carried out using software packages Origin v7.0 (OriginLab Corporation, Northampton, MA, USA) and GIM (Scientific Graphic Interactive Management System developed by A.L. Drachev in Lomonosov Moscow State University). The percentage inhibition of O2 consumption of cell suspensions (i%) was calculated using the equation i% = ((V0 − V0,i)/V0)·100, where V0 and V0,i are the initial rates in the absence and in the presence of the inhibitor (CO), respectively. The apparent IC50 values of cytochromes bd-II and bo3 for CO were estimated by plotting i% as a function of CO concentration added ([CO]0). The data were fitted to the standard hyperbolic equation i% = imax%·[CO]0/(IC50 + [CO]0) using a built-in approximation function (‘Hyperbola function’) in ‘Advanced Fitting tool’ in the Origin program. The imax% parameter is a theoretical maximum percent inhibition. […]
# [5] = biological target: T2, cytochrome bd-II (bd-II-only E. coli membranes) (Escherichia coli, UniProt P26459); test: O2 reductase activity of isolated bd-II-containing membranes; format: biochemical
# T2 construct: the oxidases were in vivo conditions, i.e., integrated into native bacterial membranes; endogenous in cells; host or cells: E. coli TBE026 (MG1655 ΔcydB nuoB cyoB::kan); whole cells (A2) or membranes isolated from them (A6)
# T2 sequence (P26459 whole entry): as the sequence (P26459 whole entry) above
# T2 sequence (P26458 whole entry partner): as the sequence (P26458 whole entry partner) above
# T2 sequence (P24244 whole entry partner): as the sequence (P24244 whole entry partner) above
# Description: (§6) To isolate membranes from E. coli respiratory mutants expressing only one terminal quinol oxidase (cytochrome bd-I or cytochrome bd-II or cytochrome bo3), cell cultures were grown in LB medium until an OD600 of about 2 was reached. The cells were then pelleted by centrifugation at 10,000 rpm for 10 min and washed twice in 20 mM TRIS pH 8.3 containing 0.5 mM EDTA and 5 mM MgSO4. The cells were resuspended in the same buffer containing 1 mg/mL lysozyme and incubated for two hours on ice. A spatula tip of DNAse and RNase was then added, and the cells were lysed by sonication. Cell debris was removed by centrifugation at 15,000 rpm for 10 min. Membrane fractions were collected and stored at −80 °C. The protein content was determined using the Bradford method, using the Bradford reagent (Sigma) with bovine serum albumin as standard.
# as §3, with “The catalytic O2-consuming activity was obtained by subtracting the non-enzymatic O2 consumption (Q1/DTT autoxidation in the absence of the membranes) from the O2 consumption rate measured after the addition of membranes.” left out
# [6] = biological target: T3, cytochrome bo3 (bo3-only E. coli cells) (Escherichia coli, UniProt P0ABI8); design: method as in PMID 38188931; details: [O2] = 150 μM; cited from earlier work
# T3 construct: the oxidases were in vivo conditions, i.e., integrated into native bacterial membranes; endogenous in cells; host or cells: E. coli TBE025 (MG1655 ΔcydB nuoB appB::kan); whole cells (A3) or membranes isolated from them (A7)
# T3 sequence (P0ABI8 whole entry): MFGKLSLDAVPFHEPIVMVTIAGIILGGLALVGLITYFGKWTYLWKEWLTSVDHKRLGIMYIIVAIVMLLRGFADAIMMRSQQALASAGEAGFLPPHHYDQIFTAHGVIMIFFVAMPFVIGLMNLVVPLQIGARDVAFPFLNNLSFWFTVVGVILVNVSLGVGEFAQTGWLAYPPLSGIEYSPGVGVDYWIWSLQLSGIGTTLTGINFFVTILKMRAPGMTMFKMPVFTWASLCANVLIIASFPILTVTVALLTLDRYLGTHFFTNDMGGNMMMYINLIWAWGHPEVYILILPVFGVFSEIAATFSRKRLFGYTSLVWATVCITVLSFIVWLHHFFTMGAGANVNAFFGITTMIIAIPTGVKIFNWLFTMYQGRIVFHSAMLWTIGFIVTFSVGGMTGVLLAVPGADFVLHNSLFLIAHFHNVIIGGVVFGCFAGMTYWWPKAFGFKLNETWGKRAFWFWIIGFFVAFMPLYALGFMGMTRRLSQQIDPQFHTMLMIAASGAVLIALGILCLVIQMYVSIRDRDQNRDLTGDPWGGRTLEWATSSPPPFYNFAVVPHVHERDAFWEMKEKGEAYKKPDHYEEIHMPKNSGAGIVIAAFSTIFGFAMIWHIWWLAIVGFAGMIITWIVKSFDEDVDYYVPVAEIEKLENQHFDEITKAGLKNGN
# T3 sequence (P0ABJ1 25-315 partner): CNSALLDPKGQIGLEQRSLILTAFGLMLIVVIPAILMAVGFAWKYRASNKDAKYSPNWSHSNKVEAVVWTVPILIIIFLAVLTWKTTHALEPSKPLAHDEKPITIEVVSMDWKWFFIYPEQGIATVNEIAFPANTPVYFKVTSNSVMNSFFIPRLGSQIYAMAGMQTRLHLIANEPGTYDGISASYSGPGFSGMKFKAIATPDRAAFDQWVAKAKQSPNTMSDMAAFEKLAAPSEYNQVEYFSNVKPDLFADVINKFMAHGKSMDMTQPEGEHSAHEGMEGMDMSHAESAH
# T3 sequence (P0ABJ3 whole entry partner): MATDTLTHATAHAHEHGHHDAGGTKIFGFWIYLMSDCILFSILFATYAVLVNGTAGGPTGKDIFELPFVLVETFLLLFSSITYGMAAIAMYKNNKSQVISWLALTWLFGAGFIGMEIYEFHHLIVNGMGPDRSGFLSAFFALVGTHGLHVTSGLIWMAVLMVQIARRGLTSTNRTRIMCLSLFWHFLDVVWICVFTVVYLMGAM
# T3 sequence (P0ABJ6 whole entry partner): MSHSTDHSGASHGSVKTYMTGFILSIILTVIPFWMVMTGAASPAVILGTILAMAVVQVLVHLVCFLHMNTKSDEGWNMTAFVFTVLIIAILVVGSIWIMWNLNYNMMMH
# [7] = biological target: T3, cytochrome bo3 (bo3-only E. coli cells); test: O2 consumption (aerobic respiration) of bo3-only E. coli cell suspensions; format: cell-based; details: for IC50: read-out: apparent IC50
# Description: as §2, §3, §4, §5
# [8] = biological target: T4, cytochrome bd-I (bd-I-only E. coli cells) (Escherichia coli, UniProt P0ABJ9); test: O2 consumption (aerobic respiration) of bd-I-only E. coli cell suspensions; format: cell-based
# T4 construct: the oxidases were in vivo conditions, i.e., integrated into native bacterial membranes; endogenous in cells; host or cells: E. coli TBE037 (MG1655 ΔappB nuoB cyoB::kan); whole cells (A1) or membranes isolated from them (A5)
# T4 sequence (P0ABJ9 whole entry): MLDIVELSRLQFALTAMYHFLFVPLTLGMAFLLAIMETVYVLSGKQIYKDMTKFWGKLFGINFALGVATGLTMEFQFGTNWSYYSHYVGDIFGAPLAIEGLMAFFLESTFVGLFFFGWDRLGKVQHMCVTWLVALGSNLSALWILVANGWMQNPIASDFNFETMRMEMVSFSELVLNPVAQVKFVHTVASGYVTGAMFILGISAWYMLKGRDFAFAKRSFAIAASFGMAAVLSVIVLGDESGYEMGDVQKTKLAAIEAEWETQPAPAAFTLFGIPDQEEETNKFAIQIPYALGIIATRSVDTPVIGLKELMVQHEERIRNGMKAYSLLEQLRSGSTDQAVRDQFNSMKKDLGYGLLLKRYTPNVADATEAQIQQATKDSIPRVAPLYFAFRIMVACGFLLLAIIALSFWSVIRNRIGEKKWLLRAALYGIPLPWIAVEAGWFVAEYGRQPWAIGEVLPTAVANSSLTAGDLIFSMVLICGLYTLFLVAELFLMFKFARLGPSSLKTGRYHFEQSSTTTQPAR
# T4 sequence (P0ABK2 whole entry partner): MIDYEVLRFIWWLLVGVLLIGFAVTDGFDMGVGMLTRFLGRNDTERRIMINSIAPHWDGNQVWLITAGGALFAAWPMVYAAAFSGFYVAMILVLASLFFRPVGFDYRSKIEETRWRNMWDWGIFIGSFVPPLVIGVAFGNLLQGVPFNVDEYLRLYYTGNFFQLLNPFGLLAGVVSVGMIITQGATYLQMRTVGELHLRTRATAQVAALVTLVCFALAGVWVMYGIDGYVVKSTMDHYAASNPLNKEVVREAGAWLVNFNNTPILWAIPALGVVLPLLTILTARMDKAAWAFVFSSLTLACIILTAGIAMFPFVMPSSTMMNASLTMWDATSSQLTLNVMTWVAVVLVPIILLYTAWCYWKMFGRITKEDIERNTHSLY
# T4 sequence (P56100 whole entry partner): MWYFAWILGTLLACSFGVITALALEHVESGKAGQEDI
# T4 sequence (A5A618 whole entry partner): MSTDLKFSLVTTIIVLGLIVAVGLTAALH
# Description: as §2
# as §3, with “The O2 consumption of E. coli cells was followed with endogenous reductants.” left out
# UV–visible absorption spectra were recorded to estimate the amount of each terminal oxidase present in cell suspensions. […]
# [9] = biological target: T5, cytochrome bd-I (bd-I-only E. coli membranes) (Escherichia coli, UniProt P0ABJ9); test: O2 reductase activity of isolated bd-I-containing membranes; format: biochemical
# T5 construct: the oxidases were in vivo conditions, i.e., integrated into native bacterial membranes; endogenous in cells; host or cells: E. coli TBE037 (MG1655 ΔappB nuoB cyoB::kan); whole cells (A1) or membranes isolated from them (A5)
# T5 sequence (P0ABJ9 whole entry): as the sequence (P0ABJ9 whole entry) above
# T5 sequence (P0ABK2 whole entry partner): as the sequence (P0ABK2 whole entry partner) above
# T5 sequence (P56100 whole entry partner): as the sequence (P56100 whole entry partner) above
# Description: as §6
# as §3, with “The catalytic O2-consuming activity was obtained by subtracting the non-enzymatic O2 consumption (Q1/DTT autoxidation in the absence of the membranes) from the O2 consumption rate measured after the addition of membranes.” left out
# [10] = system: E. coli mutant strain expressing cytochrome bd-I as the sole terminal oxidase; test: Cell growth (OD600) of bd-I-only strain in presence of CO; format: cell-based, Escherichia coli; details: ~20% CO added at 60 min after start of growth in air, vs ~20% N2 control
# Description: as §1
# [11] = system: E. coli wild-type strain MG1655 cells; test: O2 consumption of wild-type E. coli cell suspensions at high and low OD; format: cell-based, Escherichia coli
# [12] = biological target: T6, cytochrome bo3 (bo3-only E. coli membranes) (Escherichia coli, UniProt P0ABI8); test: O2 reductase activity of isolated bo3-containing membranes; format: biochemical
# T6 construct: the oxidases were in vivo conditions, i.e., integrated into native bacterial membranes; endogenous in cells; host or cells: E. coli TBE025 (MG1655 ΔcydB nuoB appB::kan); whole cells (A3) or membranes isolated from them (A7)
# T6 sequence (P0ABI8 whole entry): as the sequence (P0ABI8 whole entry) above
# T6 sequence (P0ABJ1 25-315 partner): as the sequence (P0ABJ1 25-315 partner) above
# T6 sequence (P0ABJ3 whole entry partner): as the sequence (P0ABJ3 whole entry partner) above
# T6 sequence (P0ABJ6 whole entry partner): as the sequence (P0ABJ6 whole entry partner) above
# Description: as §6
# as §3, with “The catalytic O2-consuming activity was obtained by subtracting the non-enzymatic O2 consumption (Q1/DTT autoxidation in the absence of the membranes) from the O2 consumption rate measured after the addition of membranes.” left out
# [13] = system: terminal oxidase operons cyoABCDE, cydABX, appCBX; design: method as in PMID 26907100; details: wild-type E. coli exposed to CO gas, cited from earlier work
# cytochrome bo3 = details: read-out: apparent Km(O2); cited from earlier work
# cytochrome bd-II = details: read-out: apparent Km(O2); cited from earlier work
# [14] = 196.3 μM CO added at [O2] = 50 μM
# [15] = 196.3 μM CO added at [O2] = 100 μM
# [16] = 196.3 μM CO added at [O2] = 200 μM
compound,measurement,setting,value
"[C-]#[O+] [CO, Carbon monoxide]",IC50,[1],187 ± 11.1 µM
same,effect on cell growth,[2],severely impaired
same,"koff, dissociation of CO from the oxidase",cytochrome bd-I heme d2+; fully reduced form of the CO-bound enzyme,6.0 ± 0.2 s⁻¹
same,effect on cell growth,[3],severely impaired
same,inhibition of O2 consumption,"[4]; 96.3 μM CO added at [O2] = 100 μM, bd-II-only cells",43.3 ± 7.6%
same,maximum inhibition percentage of respiration,[4]; [14],59.3 ± 11.5%
same,maximum inhibition percentage of respiration,[4]; [15],50.0 ± 3.6%
same,maximum inhibition percentage of respiration,[4]; [16],47.0 ± 6.0%
same,IC50,[4]; CO added at [O2] = 50 μM,88.6 ± 9.3 µM
same,IC50,[4]; CO added at [O2] = 100 μM,170 ± 15 µM
same,IC50,[4]; CO added at [O2] = 200 μM,230 ± 12 µM
same,Ki,"[4]; estimated from IC50 values at different [O2], assuming competitive inhibition, Km(O2) 2 µM",2.5 ± 0.2 µM
same,CO inhibition of O2 reductase activity of membranes,[5],effectively inhibits
same,IC50,[6],183 ± 13.5 µM
same,inhibition of O2 consumption,"[7]; 96.3 μM CO added at [O2] = 100 μM, bo3-only cells",44.3 ± 1.5%
same,maximum inhibition percentage of respiration,[7]; [14],85.6 ± 3.7%
same,maximum inhibition percentage of respiration,[7]; [15],65.3 ± 17.2%
same,maximum inhibition percentage of respiration,[7]; [16],39.7 ± 11.5%
same,IC50,[7]; CO added at [O2] = 50 μM,66.5 ± 10 µM
same,IC50,[7]; CO added at [O2] = 100 μM,131 ± 14 µM
same,IC50,[7]; CO added at [O2] = 200 μM,330 ± 19.6 µM
same,Ki,"[7]; estimated from IC50 values at different [O2], assuming competitive inhibition, Km(O2) 6 µM",8.4 ± 0.7 µM
same,inhibition of O2 consumption,"[8]; 96.3 μM CO added at [O2] = 100 μM, bd-I-only cells",11.6 ± 1.1%
same,maximum inhibition percentage of respiration,[8]; [14],39.6 ± 4.5%
same,maximum inhibition percentage of respiration,[8]; [15],18.0 ± 7.8%
same,maximum inhibition percentage of respiration,[8]; [16],9.7 ± 4.9%
same,CO inhibition of O2 reductase activity of membranes,[9],relatively resistant to inhibition by CO
same,effect on cell growth,[10],a minimal effect on cell growth was observed
same,sensitivity of O2 consumption to CO,[11]; wild-type cells harvested at high OD600 (prevalent expression of a bd-type oxidase),low
same,sensitivity of O2 consumption to CO,[11]; wild-type cells harvested at low OD600 (prevalent expression of cytochrome bo3),high
same,CO inhibition of O2 reductase activity of membranes,[12],effectively inhibits
same,decrease in the expression of the cyoABCDE operon,[13]; aerobic conditions,5- to 10 fold
same,increase in the expression of the cydABX operon,[13]; aerobic conditions,4 fold
same,changes in the expression of the appCBX operon,[13],slight
O=O [O2],Km,cytochrome bo3,6 µM
same,Km,cytochrome bd-II,2 µM
nitric oxide [NO],"koff, NO dissociation from heme d^2+",cytochrome bd-I heme d2+; ref 69,0.133 s⁻¹
same,"koff, NO dissociation from heme d^2+",cytochrome bd-I heme d2+; ref 70,0.163 s⁻¹
